Tests used:
[1] = test system: mice following controlled cortical impact injury (CCI); test: Beam walking task after controlled cortical impact injury (chronic neurological recovery); type: in vivo, Male C57Bl/6 mice
Procedure: Male C57Bl/6 mice (20-25 g) were obtained from Taconic Farms (Germantown, N.Y.) and housed in an area directly adjoining surgical and behavioral rooms for at least 1 week prior to any procedures. All mice were maintained at a constant temperature (22±2° C.) and a 12 hr light/dark cycle, with lights on at 6 am and all behavioral testing performed during the light cycle. Food and water were available ad libitumn.
The injury device consisted of a microprocessor-controlled pneumatic impactor with a 3.5 mm diameter tip. The impactor is vertically mounted on a mill table (Sherline, USA) which allows for precise adjustment in the vertical plane above the mouse head, which itself is secured to a stereotaxic apparatus (David Kopf Instruments, CA) attached to the instrument. The core rod of a linear voltage differential transducer (LVDT, Serotec, USA) is attached to the lower end of the impactor to allow measurement of velocities between 3.0 and 9.0 m/s. Velocity of the impactor is controlled by fine tuning both positive and negative (back) air pressures. An oscilloscope (Tektronix, USA) records the time/displacement curve produced by the downward force on the LVDT, allowing precise measurement of the impactor velocity.
Surgical anesthesia was induced and maintained with 4% and 2% isoflurane respectively, using a flow rate of 1.0-1.5 l oxygen per minute. Depth of anesthesia was assessed by monitoring respiration rate and palpebral and pedal-withdrawal reflexes. The animal was then placed onto a heated pad and core body temperature was monitored and maintained at 38+/−0.2° C. The head was mounted in a stereotaxic frame and the surgical site clipped and prepared with a series of three Nolvasan scrubs followed by sterile saline rinses. A 10 mm mid-line incision was made over the skull, the skin and fascia reflected, and a 4 mm craniotomy made on the central aspect of the left parietal bone with a tissue punch (Roboz, USA). Great care was taken with the removal of the parietal bone to avoid injury to the underlying dura mater which was continuously bathed in sterile normal saline warmed to 37.5° C. The impounder tip of the pneumatic injury device was cleaned with a pad, soaked in absolute alcohol, positioned to the surface of the exposed dura and automatically withdrawn the 44 mm stroke distance. Following injury at a moderate (6.0 m/s velocity, 1 mm tissue deformation depth) level, the incision was closed with interrupted 6-0 silk sutures, anaesthesia was discontinued and the mouse was placed into a heated cage to maintain normothermia for 45 minutes post-injury. All animals were monitored carefully for at least 4 hours post-surgery and then daily. To minimize variation between animals due to anaesthesia during acute neurological testing, 20 minutes was allowed for surgery and 5 minutes for suturing for each animal.
Conscious mice were placed in a mouse restrainer and injected via the lateral tail vein with either normal saline (injured controls; n=6), 1 mg/kg Compound 2a (n=8), Compound 10b (n=6), Compound 11b (n=6) or Compound 14c (n=6) at 30 minutes following controlled cortical impact injury (CCI). The values for n represents the number of mice in the particular treatment group. The investigator was blinded to drug treatment both at the time of surgery and for neurological and behavioral scoring.
Chronic neurological recovery was evaluated for all animals using a beam walking task, a method which is particularly good at discriminating fine motor coordination differences between injured and sham-operated animals. The device consisted of a narrow wooden beam 6 mm wide and 120 mm in length which was suspended 300 mm above a 60 mm-thick foam rubber pad. The mouse was placed on one end of the beam and the number of footfaults for the right hindlimb recorded over 50 steps counted in either direction on the beam. A basal level of competence at this task was established before surgery with an acceptance level of <10 faults per 50 steps. […]

[2] = test system: rats following moderate fluid percussion injury; test: Mortality after moderate fluid percussion injury; type: in vivo, Male Sprague-Dawley rats; conditions: 1 mg/kg i.v. 30 min following moderate fluid percussion injury; died before the end of the study; saline 21.4% and 37.5%
Procedure: Rats were anesthetized with sodium pentobarbital (70 mg/kg i.p.), intubated, and implanted with femoral venous and arterial catheters. Brain temperature was assessed indirectly through a thermister in the temporalis muscle. Body temperature was maintained through a feedback-controlled heating blanket. Blood pressure was continuously monitored, and arterial blood gases analyzed periodically. After the animal was placed in a stereotaxic frame, the scalp and temporal muscle were reflected, and a small craniotomy (5 mm) located midway between the lambda and bregma sutures over the left parietal cortex allowed insertion of a Leur-Loc that is cemented in place. The fluid-percussion head injury device, manufactured by the Medical College of Virginia, consists of a plexiglass cylindrical reservoir filled with isotonic saline; one end includes a transducer that is mounted and connected to a 5 mm tube that attaches through a male Leur-Loc fitting to the female Leur-Loc cemented at the time of surgery. A pendulum strikes a piston at the opposite end of the device, producing a pressure pulse of approximately 22 msec duration, leading to deformation of underlying brain. The degree of injury is related to the pressure pulse, expressed in atmospheres (atm): 2.6 atm in our laboratory produces a moderate injury with regard to neurological and histological deficit. Sham (control) animals undergo anesthesia and surgery without fluid percussion brain injury. […]
Continuous variables compared across groups were examined using an analysis of variance (ANOVA) followed by Bonferroni correction (rightin reflex). Continuous variables subjected to repeated measurements over a period of time (cardiovascular and core temperature measurements) were analyzed using a repeated measurements ANOVA followed by Tukey's pairwise comparison at each time point. Ordinal measurements (composite neurological scores) were evaluated using the non-parametric Kruskal-Wallis ANOVA with individual, non-parametric Mann-Whitney U-tests. […]

O=C1NC2(CCCCC2)C(=O)N2CCC[C@@H]12 [Compound 2a, Cyclo[(1-Amino-1-Cyclohexane-Carboxylic Acid)-Pro]]
beam walking, time course of recovery of function ([1]; 1 mg/kg i.v. at 30 min following CCI): began to show some recovery of function after 3 days
beam walking performance (right hindlimb footfaults) compared with saline-treated injured animals ([1]; 1 mg/kg i.v. at 30 min following CCI, 14 days following injury, p<0.05): significant improvement in performance
beam walking outcome (right hindlimb footfaults) compared with saline-treated animals ([1]; 1 mg/kg i.v. at 30 min following CCI, 21 days post-injury, p<0.01): continued improvement in outcome
dose with optimal effects in beam walking (inverted U-shaped dose-response curve) ([1]; 0.1, 1.0 or 10.0 mg/kg at 60 minutes following CCI): 1 mg/kg
mortality rate [2]: 25%
